# Results published in US5708174A, “Heterocyclic-esters or -amides used as 5-HT4 receptor antagonists” (SmithKline Beecham p.l.c., priority 1992, dated 1998).
# Counter-ions that a name gives are not always drawn.
# Test system: 5-HT4 receptor
# Assay: Guinea pig colon 5-HT4 receptor antagonist activity (longitudinal muscle-myenteric plexus, 5-HT-evoked contraction)
# Type: cell-based
# Settings: guinea-pig distal colon longitudinal muscle-myenteric plexus; contraction evoked by 5-HT
# Method: 5-HT4 RECEPTOR ANTAGONIST ACTIVITY
# Male guinea-pigs, weighing 250-400 g are used. Longitudinal muscle-myenteric plexus preparations, approximately 3 cm long, are obtained from the distal colon region. These are suspended under a 0.5 g load in isolated tissue baths containing Krebs solution bubbled with 5% CO2 in O2 and maintained at 37° C. In all experiments, the Krebs solution also contains methiothepin 10^-7 M and granisetron 10^-6 M to block effects at 5-HT1, 5-HT2 and 5-HT3 receptors.
# After construction of a simple concentration-response curve with 5-HT, using 30s contact times and a 15 min dosing cycle, a concentration of 5-HT is selected so as to obtain a contraction of the muscle approximately 40-70% maximum(10^-9 M approx). The tissue is then alternately dosed every 15 min with this concentration of 5-HT and then with an approximately equi-effective concentration of the nicotine receptor stimulant, dimethylphenylpiperazinium (DMPP). After obtaining consistent responses to both 5-HT and DMPP, increasing concentrations of a putative 5-HT4 receptor antagonist are then added to the bathing solution. The effects of this compound are then determined as a percentage reduction of the contractions evoked by 5-HT or by DMPP. […] A compound which reduces the response to 5-HT but not to DMPP is believed to act as a 5-HT4 receptor antagonist.
smiles,measurement,value
"CCCCN1CCC(COC(=O)c2cccc3cccnc23)CC1 [Example 1-2, (1-Butyl-4-piperidinylmethyl)quinolinyl-8-carboxylate hydrochloride]",5-HT4 receptor antagonist activity (in words),particularly good activity
